Laboratory results published in US8680100B2, “Sulfonylhydrazide compounds for treating proliferative disorders” (Synta Pharmaceuticals Corp., priority 2008, dated 2014).

The molecules below were run on HSP70 (assay: Hsp70 Activity Essay (HSP70 ELISA on lysates of MDA435 cells)). Conditions: concentration that increases HSP70 to 50% of maximum increase by N′1,N′3-dimethyl-N′1,N′3-di(phenylcarbonothioyl)malonohydrazide.
Format: cell-based
Procedure: Each well was plated with MDA435 cells using DMEM 10% FBS Phenol-red free medium 2.5 k/well and incubated in a 37° C./5% CO2 incubator for a minimum of 6 hours to obtain good cell adherence.
Dilutions of each test compound were prepared in DMSO and DMEM 10% FBS Phenol-red free medium. The final concentration in each well was 1250 nM, 125 nM, 12.5 nM or 1.25 nM of test compound and 0.25% DMSO. 0.25% DMSO was used as a negative control. Lysis buffer (any lysis buffer suitable for use in the Assay Designs kit, e.g., such as that described in the kit instructions) was then added (amount used is one quarter of the volume already present in each plate) and the mixtures were then shaken for 10 minutes.
150 μL of “Can Get Signal” Immunoreaction Enhancer Solution (Solution 1 for primary antibody, TOYOBO, Catalogue No. NKB-101) were added to each of a series of ELISA plates. The ELISA plates were obtained from the HSP70 ELISA Kit (catalogue number EKS-700B) purchased from Assay Designs (Ann Arbor, Mich.). After the cells were lysed, 50 μL of lysate were taken from each well and added to an ELISA plate, resulting in a 4 fold dilution of the lysate (50 μL of lysate and 150 μL of Can Get Signal solution). The plates were covered with adhesive tape and incubated overnight at 4° C.;
In the morning, the liquid was aspirated from all wells and 400 μL of Washing Buffer made from 20× concentrate provided in the ELISA Kit and distilled water were added and then removed by aspiration. The addition of Washing Buffer and aspiration was repeated four times. After the fourth wash, the plate were inverted to a paper towel and carefully patted dry. 100 μL of HSP70 antibody provided in ELISA Kit were added to each well. Each well was covered with adhesive tape and incubated for one hour at room temperature. Washing Buffer was then added followed by removal with aspiration. The addition of Washing Buffer and aspiration was repeated four times, after which the plates were inverted and patted dry. 100 μL of HSP70 conjugate (provided in the ELISA Kit) were added to the wells. Each well was then covered with adhesive tape and incubated for one hour at room temperature. Washing Buffer was then added followed by removal with aspiration. The addition of Washing Buffer and aspiration was repeated four times, after which the plates were inverted and patted dry.
100 μL of the TMB Substrate (obtained from the ELISA Kit) were added to the wells (color development was visible in 1 minute). The wells were incubated until saturated color development (usually 5-15 minutes). Stop Solution 2 (provided in the ELISA Kit) was added in the same order TMB Substrate was added. The OD450 was then obtained using a plate reader. The EC50 for the compounds was calculated using N′^1,N′^3-dimethyl-N′^1,N′^3-di(phenylcarbonothioyl)malonohydrazide on the same plate as a control (concentration that increases HSP70 to 50% of maximum increase by N′^1,N′^3-dimethyl-N′^1,N′^3-di(phenylcarbonothioyl)malonohydrazide). The EC50 for each of the compounds tested is shown in example 1.

| EC50 | Compound |
| --- | --- |
| 1020 nM | CCN(NS(=O)(=O)CC(=O)NN(C)C(=S)C1CC1)C(=S)c1cnccn1 [Compound 35, 2-(2-(cyclopropanecarbonothioyl)-2-methylhydrazinyl)-N′-ethyl-2-oxo-N′-(pyrazine-2-carbonothioyl)-ethanesulfonohydrazide] |
| 958 nM | CN(NC(=O)CS(=O)(=O)NN(C)C(=S)C1CCC1)C(=S)C1CCC1 [Compound 32, N′-(cyclobutanecarbonothioyl)-2-(2-(cyclobutanecarbonothioyl)-2-methylhydrazinyl)-N′-methyl-2-oxoethanesulfonohydrazide] |
| 227 nM | CN(NC(=O)C(=CNC1CC1)S(=O)(=O)NN(C)C(=S)C1CC1)C(=S)C1CC1 [Compound 90, N′-(cyclopropanecarbonothioyl)-3-(2-(cyclopropanecarbonothioyl)-2-methylhydrazinyl)-1-(cyclopropylamino)-N′-methyl-3-oxoprop-1-ene-2-sulfonohydrazide] |
| 229 nM | CC(C)NC=C(C(=O)NN(C)C(=S)C1CC1)S(=O)(=O)NN(C)C(=S)C1CC1 [Compound 91, N′-(cyclopropanecarbonothioyl)-3-(2-(cyclopropanecarbonothioyl)-2-methylhydrazinyl)-1-(isopropylamino)-N′-methyl-3-oxoprop-1-ene-2-sulfonohydrazide] |
| 1120 nM | CN(NS(=O)(=O)CC(=O)NN(C)C(=S)C1CCC1)C(=S)c1ccccc1 [Compound 40, 2-(2-(cyclobutanecarbonothioyl)-2-methylhydrazinyl)-N′-methyl-2-oxo-N′-(phenylcarbonothioyl)ethane-sulfonohydrazide] |
| 202 nM | CN(NC(=O)CS(=O)(=O)NN(C)C(=S)c1ccccc1)C(=S)c1cccnc1 [Compound 13, N′-methyl-2-(2-methyl-2-(pyridine-3-carbonothioyl)hydrazinyl)-2-oxo-N′-(phenylcarbonothioyl)ethane-sulfonohydrazide] |
| 139 nM | CN(NC(=O)CS(=O)(=O)NN(C)C(=S)c1ccccc1F)C(=S)c1ccccc1 [Compound 80, N′-(2-fluorophenylcarbonothioyl)-N′-methyl-2-(2-methyl-2-(phenylcarbonothioyl)hydrazinyl)-2-oxoethanesulfonohydrazide] |
| 967 nM | CN(NS(=O)(=O)CC(=O)NN(C)C(=S)C1CC1)C(=S)c1cnco1 [Compound 77, 2-(2-(cyclopropanecarbonothioyl)-2-methylhydrazinyl)-N′-methyl-N′-(oxazole-5-carbonothioyl)-2-oxoethanesulfonohydrazide] |
| 129 nM | CN(NC(=O)CS(=O)(=O)NN(C)C(=S)c1csc2ccccc12)C(=S)c1ccccc1 [Compound 59] |
| 102 nM | CN(NS(=O)(=O)CC(=O)NN(C)C(=S)N1CCCC1)C(=S)c1ccccc1 [Compound 53, N′-methyl-2-(2-methyl-2-(pyrrolidine-1-carbonothioyl)hydrazinyl)-2-oxo-N′-(phenylcarbonothioyl)ethane-sulfonohydrazide] |
| 144 nM | CN(NC(=O)CS(=O)(=O)NN(C)C(=S)C1CC1)C(=S)c1cccc(C(F)(F)F)n1 [Compound 84, N′-(cyclopropanecarbonothioyl)-N′-methyl-2-(2-methyl-2-(6-(trifluoromethyl)pyridine-2-carbonothioyl)hydrazinyl)-2-oxoethanesulfonohydrazide] |
| 1030 nM | CN(NC(=O)CS(=O)(=O)NN(C)C(=S)c1ccccc1)C(=S)c1ccncc1 [Compound 11, N′-methyl-2-(2-methyl-2-(pyridine-4-carbonothioyl)hydrazinyl)-2-oxo-N′-(phenylcarbonothioyl)ethane-sulfonohydrazide] |
| 127 nM | CN(NC(=O)CS(=O)(=O)NN(C)C(=S)c1ccoc1)C(=S)c1ccoc1 [Compound 17, N′-(furan-3-carbonothioyl)-2-(2-(furan-3-carbonothioyl)-2-methylhydrazinyl)-N′-methyl-2-oxoethanesulfonohydrazide] |
| 209 nM | CN(C)C=C(C(=O)NN(C)C(=S)C1CC1)S(=O)(=O)NN(C)C(=S)C1CC1 [Compound 88, N′-(cyclopropanecarbonothioyl)-3-(2-(cyclopropanecarbonothioyl)-2-methylhydrazinyl)-1-(dimethylamino)-N′-methyl-3-oxoprop-1-ene-2-sulfonohydrazide] |
| 201 nM | CNC=C(C(=O)NN(C)C(=S)C1CC1)S(=O)(=O)NN(C)C(=S)C1CC1 [Compound 89, N′-(cyclopropanecarbonothioyl)-3-(2-(cyclopropanecarbonothioyl)-2-methylhydrazinyl)-N′-methyl-1-(methylamino)-3-oxoprop-1-ene-2-sulfonohydrazide] |
| 85 nM | CCN(CC)C(=S)N(C)NC(=O)CS(=O)(=O)NN(C)C(=S)N(CC)CC [Compound 20, 2-(2-(2-(diethylcarbamothioyl)-2-methylhydrazinyl)-2-oxoethylsulfonyl)-N,N′-diethyl-1-methylhydrazinecarbothioamide] |
| 108 nM | CN(NS(=O)(=O)CC(=O)NN(C)C(=S)N1CCCCC1)C(=S)c1ccccc1 [Compound 54, N′-methyl-2-(2-methyl-2-(piperidine-1-carbonothioyl)hydrazinyl)-2-oxo-N′-(phenylcarbonothioyl)ethane-sulfonohydrazide] |
| 143 nM | CCOC(=S)N(C)NS(=O)(=O)CC(=O)NN(C)C(=S)C1CC1 [Compound 33, O-ethyl 2-(2-(2-(cyclopropanecarbonothioyl)-2-methylhydrazinyl)-2-oxoethylsulfonyl)-1-methylhydrazinecarbothioate] |
| 127 nM | CCN(CC)C(=S)N(C)NS(=O)(=O)CC(=O)NN(C)C(=S)c1cnccn1 [Compound 70, N,N′-diethyl-1-methyl-2-(2-(2-methyl-2-(pyrazine-2-carbonothioyl)hydrazinyl)-2-oxoethylsulfonyl)hydrazine-carbothioamide] |
| 60 nM | CN(NC(=O)CS(=O)(=O)NN(C)C(=S)c1cccc(F)c1)C(=S)c1cccc(F)c1 [Compound 1, N′-(3-fluorophenylcarbonothioyl)-2-(2-(3-fluorophenylcarbonothioyl)-2-methylhydrazinyl)-N′-methyl-2-oxoethanesulfonohydrazide] |
| 25 nM | CCN(NS(=O)(=O)CC(=O)NN(C)C(=S)c1ccccc1)C(=S)c1ccccn1 [Compound 6, N′-ethyl-2-(2-methyl-2-(phenylcarbonothioyl)hydrazinyl)-2-oxo-N′-(pyridine-2-carbonothioyl) ethanesulfonohydrazide] |
| 22 nM | CN(NC(=O)CS(=O)(=O)NN(C)C(=S)C1CC1)C(=S)c1ccccc1 [Compound 39, N′-(cyclopropanecarbonothioyl)-N′-methyl-2-(2-methyl-2-(phenylcarbonothioyl)hydrazinyl)-2-oxoethanesulfonohydrazide] |
